Assay results: US10533015B1, “Opioid receptor antagonist prodrugs” (Nirsum Laboratories, Inc., priority 2019, dated 2020)
Like-named read-outs stand apart in the source and are kept apart here.

[1] = heating temp. 60 °C, obs. temp. 25 °C
[2] = heating temp. 40 °C, obs. temp. 40 °C
[3] = section 'Solubility by volumetric flask method', heating temp. 40 °C, obs. temp. 40 °C
[4] = heating temp. 60 °C, obs. temp. 40 °C

Compound | Approximate Solubility (mg/mL) in Excipient: Cottonseed oil [1] | Approximate Solubility (mg/mL) in Excipient: Ethanol [2] | Approximate Solubility (mg/mL) in Excipient: Sesame oil [1] | Equilibrium solubility (mg/mL) Water [2] | other results
C=C1CC[C@@]2(O)C3Cc4ccc(OC(=O)CCCCCCC/C=C\C/C=C\CCCCC)c5c4[C@@]2(CCN3CC2CC2)[C@H]1O5 [Compound 37, (4aS,7aS,12bS)-3-(cyclopropylmethyl)-4a-hydroxy-7-methylene-2,3,4,4a,5,6,7,7a-octahydro-1H-4,12-methanobenzofuro[3,2-e]isoquinolin-9-yl (9Z,12Z)-octadeca-9,12-dienoate] | 68.5-82^ mg/mL | 75 to 90 mg/mL | 80 to 102 mg/mL | – | Approximate Solubility (mg/mL) in Excipient: Castor oil (Castor oil, heating temp. 40 °C, obs. temp. 40 °C): >226 mg/mL; Approximate Solubility (mg/mL) in Excipient: Sesame oil [2]: >408.4 mg/mL
C=C1CC[C@@]2(O)C3Cc4ccc(OCOC(=O)OCCCCCCCCCCC)c5c4[C@@]2(CCN3CC2CC2)[C@H]1O5 [Compound 5, (((4aS,7aS,12bS)-3-(cyclopropylmethyl)-4a-hydroxy-7-methylene-2,3,4,4a,5,6,7,7a-octahydro-1H-4,12-methanobenzofuro[3,2-e]isoquinolin-9-yl)oxy)methyl undecyl carbonate] | – | – | – | – | Solubility by volumetric flask method: Cottonseed oil [1]: >401.8 mg/mL; Solubility by volumetric flask method: Sesame oil [1]: >400.6 mg/mL; Equilibrium solubility (mg/mL) Water [3]: <0.001 mg/mL
CCCCCCCCCCCCCCOC(=O)OCOc1ccc2c3c1O[C@H]1C(=O)CC[C@@]4(O)C(C2)N(CC2CC2)CC[C@]314 [Compound 27, (((4aS,7aR,12bS)-3-(cyclopropylmethyl)-4a-hydroxy-7-oxo-2,3,4,4a,5,6,7,7a-octahydro-1H-4,12-methanobenzofuro[3,2-e]isoquinolin-9-yl)oxy)methyl tetradecyl carbonate] | >394.7 mg/mL | – | >399.2 mg/mL | <0.001 mg/mL | –
CCCCCCCCCCCOC(=O)OCOc1ccc2c3c1O[C@H]1C(=O)CC[C@@]4(O)C(C2)N(CC2CC2)CC[C@]314 [Compound 4, (((4aS,7aR,12bS)-3-(cyclopropylmethyl)-4a-hydroxy-7-oxo-2,3,4,4a,5,6,7,7a-octahydro-1H-4,12-methanobenzofuro[3,2-e]isoquinolin-9-yl)oxy)methyl undecyl carbonate] | – | – | – | – | Solubility by volumetric flask method: Cottonseed oil [1]: >395.3 mg/mL; Solubility by volumetric flask method: Sesame oil [1]: >400.4 mg/mL; Equilibrium solubility (mg/mL) Water [3]: <0.001 mg/mL
CCCCCCCC/C=C\CCCCCCCCCCCC(=O)Oc1ccc2c3c1O[C@H]1C(=O)CC[C@@]4(O)C(C2)N(CC2CC2)CC[C@]314 [Compound 22, (4aS,7aR,12bS)-3-(cyclopropylmethyl)-4a-hydroxy-7-oxo-2,3,4,4a,5,6,7,7a-octahydro-1H-4,12-methanobenzofuro[3,2-e]isoquinolin-9-yl (Z)-docos-13-enoate] | 67 to 80 mg/mL | – | 67 to 80 mg/mL | – | Approximate Solubility (mg/mL) in Excipient: Cottonseed oil [4]: >405.9 mg/mL; Approximate Solubility (mg/mL) in Excipient: Ethanol [4]: >397.7 mg/mL; Approximate Solubility (mg/mL) in Excipient: Sesame oil [4]: >401.9 mg/mL
C=C1CC[C@@]2(O)C3Cc4ccc(OC(=O)CCCCCCC/C=C\C/C=C\C/C=C\CC)c5c4[C@@]2(CCN3CC2CC2)[C@H]1O5 [Compound 20, (4aS,7aS,12bS)-3-(cyclopropylmethyl)-4a-hydroxy-7-methylene-2,3,4,4a,5,6,7,7a-octahydro-1H-4,12-methanobenzofuro[3,2-e]isoquinolin-9-yl (9Z,12Z,15Z)-octadeca-9,12,15-trienoate] | 68 to 82 mg/mL | 157 to 197 mg/mL | 80 to 100 mg/mL | <0.0002 mg/mL | Approximate Solubility (mg/mL) in Excipient: Cottonseed oil [2]: >414 mg/mL; Approximate Solubility (mg/mL) in Excipient: Sesame oil [2]: >406 mg/mL
C=C1CC[C@@]2(O)C3Cc4ccc(OC(=O)CCCCCCCCCCC/C=C\CCCCCCCC)c5c4[C@@]2(CCN3CC2CC2)[C@H]1O5 [Compound 13, (4aS,7aS,12bS)-3-(cyclopropylmethyl)-4a-hydroxy-7-methylene-2,3,4,4a,5,6,7,7a-octahydro-1H-4,12-methanobenzofuro[3,2-e]isoquinolin-9-yl (Z)-docos-13-enoate] | <50 mg/mL | >214 mg/mL | 91 to 121 mg/mL | – | Approximate Solubility (mg/mL) in Excipient: Cottonseed oil [2]: >381 mg/mL; Approximate Solubility (mg/mL) in Excipient: Sesame oil [2]: >406 mg/mL
C=C1CC[C@@]2(O)C3Cc4ccc(OCOC(=O)CCCCCCCCCCC)c5c4[C@@]2(CCN3CC2CC2)[C@H]1O5 [Compound 44, (((4aS,7aS,12bS)-3-(cyclopropylmethyl)-4a-hydroxy-7-methylene-2,3,4,4a,5,6,7,7a-octahydro-1H-4,12-methanobenzofuro[3,2-e]isoquinolin-9-yl)oxy)methyl dodecanoate] | >407 mg/mL | – | 208 to 231 mg/mL | <0.001 mg/mL | –
C=C1CC[C@@]2(O)C3Cc4ccc(OCOC(=O)CCCCCCCCCCCCCCC)c5c4[C@@]2(CCN3CC2CC2)[C@H]1O5 [Compound 46, (((4aS,7aS,12bS)-3-(cyclopropylmethyl)-4a-hydroxy-7-methylene-2,3,4,4a,5,6,7,7a-octahydro-1H-4,12-methanobenzofuro[3,2-e]isoquinolin-9-yl)oxy)methyl hexadecanoate] | >395.5 mg/mL | – | 202 to 269 mg/mL | <0.001 mg/mL | –
C=C1CC[C@@]2(O)C3Cc4ccc(OC(=O)OCCCCCCCCCCCCCCCCCCCC)c5c4[C@@]2(CCN3CC2CC2)[C@H]1O5 [Compound 28, (4aS,7aS,12bS)-3-(cyclopropylmethyl)-4a-hydroxy-7-methylene-2,3,4,4a,5,6,7,7a-octahydro-1H-4,12-methanobenzofuro[3,2-e]isoquinolin-9-yl icosyl carbonate] | <50.2 mg/mL | – | <50.6 mg/mL | <0.001 mg/mL | –
CCCCCCCCCCCC(=O)OCOc1ccc2c3c1O[C@H]1C(=O)CC[C@@]4(O)C(C2)N(CC2CC2)CC[C@]314 [Compound 48, (((4aS,7aR,12bS)-3-(cyclopropylmethyl)-4a-hydroxy-7-oxo-2,3,4,4a,5,6,7,7a-octahydro-1H-4,12-methanobenzofuro[3,2-e]isoquinolin-9-yl)oxy)methyl dodecanoate] | >410.5 mg/mL | – | – | – | –
CCCCCCCC/C=C/CCCCCCCC(=O)Oc1ccc2c3c1O[C@H]1C(=O)CC[C@@]4(O)C(C2)N(CC2CC2)CC[C@]314 [Compound 8, (4aS,7aR,12bS)-3-(cyclopropylmethyl)-4a-hydroxy-7-oxo-2,3,4,4a,5,6,7,7a-octahydro-1H-4,12-methanobenzofuro[3,2-e]isoquinolin-9-yl (E)-octadec-9-enoate] | – | – | – | – | Approximate Solubility (mg/mL) in Excipient: Cottonseed oil (heating 60 °C, obs. 25 °C, initial failed batch due to non-optimized synthesis): <50 mg/mL; Solubility by volumetric flask method: Sesame oil [1]: >399.8 mg/mL; Equilibrium solubility (mg/mL) Water [3]: <0.001 mg/mL
CCCCCCCC/C=C/CCCCCCCC(=O)OCOc1ccc2c3c1O[C@H]1C(=O)CC[C@@]4(O)C(C2)N(CC2CC2)CC[C@]314 [Compound 26, (((4aS,7aR,12bS)-3-(cyclopropylmethyl)-4a-hydroxy-7-oxo-2,3,4,4a,5,6,7,7a-octahydro-1H-4,12-methanobenzofuro[3,2-e]isoquinolin-9-yl)oxy)methyl (E)-octadec-9-enoate] | 204.3-239^ mg/mL | – | <354 mg/mL | <0.001 mg/mL | –
C=C1CC[C@@]2(O)C3Cc4ccc(OC(=O)OCCCCCCCCCCCCCCCCCC)c5c4[C@@]2(CCN3CC2CC2)[C@H]1O5 [Compound 33, (4aS,7aS,12bS)-3-(cyclopropylmethyl)-4a-hydroxy-7-methylene-2,3,4,4a,5,6,7,7a-octahydro-1H-4,12-methanobenzofuro[3,2-e]isoquinolin-9-yl octadecyl carbonate] | <50 mg/mL | – | <51 mg/mL | <0.001 mg/mL | –
CCCCCCCC/C=C\CCCCCCCC(=O)Oc1ccc2c3c1O[C@H]1C(=O)CC[C@@]4(O)C(C2)N(CC2CC2)CC[C@]314 [Compound 41, (4aS,7aR,12bS)-3-(cyclopropylmethyl)-4a-hydroxy-7-oxo-2,3,4,4a,5,6,7,7a-octahydro-1H-4,12-methanobenzofuro[3,2-e]isoquinolin-9-yl oleate] | <50 mg/mL | >201 mg/mL | <50 mg/mL | – | Approximate Solubility (mg/mL) in Excipient: Cottonseed oil [2]: >407 mg/mL
C=C1CC[C@@]2(O)C3Cc4ccc(OC(=O)CCCCCCCCCCCCCCCCC)c5c4[C@@]2(CCN3CC2CC2)[C@H]1O5 [Compound 12, (4aS,7aS,12bS)-3-(cyclopropylmethyl)-4a-hydroxy-7-methylene-2,3,4,4a,5,6,7,7a-octahydro-1H-4,12-methanobenzofuro[3,2-e]isoquinolin-9-yl stearate] | <51 mg/mL | 65 to 75 mg/mL | <50 mg/mL | – | Approximate Solubility (mg/mL) in Excipient: Cottonseed oil [2]: 100 to 120 mg/mL; Approximate Solubility (mg/mL) in Excipient: Cottonseed oil [4]: >398.5 mg/mL; Approximate Solubility (mg/mL) in Excipient: Sesame oil [2]: 70 to 95 mg/mL; Approximate Solubility (mg/mL) in Excipient: Sesame oil [4]: >411.1 mg/mL
